Results taken from article PMC11148080, “Ru(II)-based complexes containing 2-thiouracil derivatives suppress liver cancer stem cells by targeting NF-κB and Akt/mTOR signaling” (Cell Death Discovery, 2024).
“And” between values parts separate entries of the source, which are not always exact repeats. Identical values can stand only once.

Legend:
Type in all cases: cell-based, human
A-375 = test: Alamar Blue cytotoxicity; details: for IC50: A-375, 72 h
Method: (§1) The Alamar Blue assay was used to measure cell viability, as previously described. Adherent cells were seeded in 96-well plates at a density of 7 × 10^3 cells per well, and suspended cells were seeded at 3 × 10^4 cells per well. Drugs were added to each well after overnight incubation for adherent cells or immediately after seeding for suspension cells, and incubation continued for an additional 72 h. The positive control included doxorubicin (Laboratorio IMA S.A.I.C., Buenos Aires, Argentina). Four hours (for cell lines) or 24 h (for primary cultures) before the end of incubation, 20 μL of resazurin (30 μM) (Sigma‒Aldrich Co. St. Louis, MO, USA) was added to each well. The absorbance at 570 and 600 nm was measured using a SpectraMax 190 microplate reader (Molecular Devices, Sunnyvale, CA, USA).

A549 = test: Alamar Blue cytotoxicity
Method: as §1

CAL 27 = test: Alamar Blue cytotoxicity; details: for IC50: CAL 27, 72 h
Method: as §1

DU 145 = test: Alamar Blue cytotoxicity; details: for IC50: DU 145, 72 h
Method: as §1

HCT116 = test: Alamar Blue cytotoxicity; details: for IC50: HCT116, 72 h
Method: as §1

HSC-3 = test: Alamar Blue cytotoxicity; details: for IC50: HSC-3, 72 h
Method: as §1

HepG2 = test: Alamar Blue cytotoxicity; details: for IC50: HepG2, 72 h
Method: as §1

Jurkat = test: Alamar Blue cytotoxicity; details: for IC50: Jurkat, 72 h
Method: as §1

KG-1a = test: Alamar Blue cytotoxicity; details: for IC50: KG-1a, 72 h
Method: as §1

MDA-MB-231 = test: Alamar Blue cytotoxicity; details: for IC50: MDA-MB-231, 72 h
Method: as §1

NB4 = test: Alamar Blue cytotoxicity; details: for IC50: NB4, 72 h
Method: as §1

OVCAR-3 = test: Alamar Blue cytotoxicity; details: for IC50: OVCAR-3, 72 h
Method: as §1

PANC-1 = test: Alamar Blue cytotoxicity; details: for IC50: PANC-1, 72 h
Method: as §1

SCC-25 = test: Alamar Blue cytotoxicity; details: for IC50: SCC-25, 72 h
Method: as §1

SCC-9 = test: Alamar Blue cytotoxicity; details: for IC50: SCC-9, 72 h
Method: as §1

SCC4 = test: Alamar Blue cytotoxicity; details: for IC50: SCC4, 72 h
Method: as §1

THP-1 = test: Alamar Blue cytotoxicity; details: for IC50: THP-1, 72 h
Method: as §1

U-87 MG = test: Alamar Blue cytotoxicity; details: for IC50: U-87 MG, 72 h
Method: as §1

HepG2 cells = test: Transwell migration assay; details: same concentrations (0.5 μM complex 1, 0.3 μM complex 2), 24 h
Method: Transwell plates were used for the cell migration assay, as previously described. The cells were initially incubated in serum-free media for 24 h. We used uncoated cell culture inserts in 6-well plates ([…]; Corning, USA). The upper chamber received 1.5 mL of serum-free medium, whereas the bottom chamber received 2 mL of medium containing 20% FBS. Cotton swabs were used to remove cells that remained in the top chamber after 24 h. The cells on the bottom surface of the membrane were fixed in 4% paraformaldehyde and stained with 0.5% crystal violet. The cells were imaged and counted using an optical microscope (Leica, DMI8).

Compound: COc1cccc2c1C(=O)c1c(O)c3c(c(O)c1C2=O)C[C@@](O)(C(=O)CO)C[C@@H]3O[C@H]1C[C@H](N)[C@H](O)[C@H](C)O1 [Doxorubicin]
- IC50 (A-375; Homo sapiens): 160 nM
- Selectivity index (A-375; IC50 BJ/IC50 A-375): 11.56
- Selectivity index (A-375; IC50 MRC-5/IC50 A-375): 10.63
- Selectivity index (A-375; IC50 PBMC/IC50 A-375): 8.31
- Selectivity index (A549; IC50 BJ/IC50 A549): 0.79
- Selectivity index (A549; IC50 MRC-5/IC50 A549): 0.72
- Selectivity index (A549; IC50 PBMC/IC50 A549): 0.57
- IC50 (CAL 27; Homo sapiens): 110 nM
- Selectivity index (CAL 27; IC50 BJ/IC50 CAL 27): 16.82
- Selectivity index (CAL 27; IC50 MRC-5/IC50 CAL 27): 15.45
- Selectivity index (CAL 27; IC50 PBMC/IC50 CAL 27): 12.09
- IC50 (DU 145; Homo sapiens): 240 nM
- Selectivity index (DU 145; IC50 BJ/IC50 DU 145): 7.71
- Selectivity index (DU 145; IC50 MRC-5/IC50 DU 145): 7.08
- Selectivity index (DU 145; IC50 PBMC/IC50 DU 145): 5.54
- IC50 (HCT116; Homo sapiens, HCT-116): 860 nM
- Selectivity index (HCT116; IC50 BJ/IC50 HCT116): 2.15
- Selectivity index (HCT116; IC50 MRC-5/IC50 HCT116): 1.98
- Selectivity index (HCT116; IC50 PBMC/IC50 HCT116): 1.55
- IC50 (HSC-3; Homo sapiens): 690 nM
- Selectivity index (HSC-3; IC50 BJ/IC50 HSC-3): 2.68
- Selectivity index (HSC-3; IC50 MRC-5/IC50 HSC-3): 2.46
- Selectivity index (HSC-3; IC50 PBMC/IC50 HSC-3): 1.93
- IC50 (HepG2; Homo sapiens): 320 nM
- Selectivity index (HepG2; IC50 BJ/IC50 HepG2): 5.78
- Selectivity index (HepG2; IC50 MRC-5/IC50 HepG2): 5.31
- Selectivity index (HepG2; IC50 PBMC/IC50 HepG2): 4.16
- IC50 (Jurkat; Homo sapiens): 60 nM
- Selectivity index (Jurkat; IC50 BJ/IC50 Jurkat): 30.83
- Selectivity index (Jurkat; IC50 MRC-5/IC50 Jurkat): 28.33
- Selectivity index (Jurkat; IC50 PBMC/IC50 Jurkat): 22.17
- IC50 (KG-1a; Homo sapiens): 70 nM
- Selectivity index (KG-1a; IC50 BJ/IC50 KG-1a): 26.43
- Selectivity index (KG-1a; IC50 MRC-5/IC50 KG-1a): 24.29
- Selectivity index (KG-1a; IC50 PBMC/IC50 KG-1a): 19.00
- IC50 (MDA-MB-231; Homo sapiens): 430 nM
- Selectivity index (MDA-MB-231; IC50 BJ/IC50 MDA-MB-231): 4.30
- Selectivity index (MDA-MB-231; IC50 MRC-5/IC50 MDA-MB-231): 3.95
- Selectivity index (MDA-MB-231; IC50 PBMC/IC50 MDA-MB-231): 3.09
- IC50 (NB4; Homo sapiens, NB-4): 90 nM
- Selectivity index (NB4; IC50 BJ/IC50 NB4): 20.56
- Selectivity index (NB4; IC50 MRC-5/IC50 NB4): 18.89
- Selectivity index (NB4; IC50 PBMC/IC50 NB4): 14.78
- IC50 (OVCAR-3; Homo sapiens): 1060 nM
- Selectivity index (OVCAR-3; IC50 BJ/IC50 OVCAR-3): 1.75
- Selectivity index (OVCAR-3; IC50 MRC-5/IC50 OVCAR-3): 1.60
- Selectivity index (OVCAR-3; IC50 PBMC/IC50 OVCAR-3): 1.25
- IC50 (PANC-1; Homo sapiens): 1110 nM
- Selectivity index (PANC-1; IC50 BJ/IC50 PANC-1): 1.67
- Selectivity index (PANC-1; IC50 MRC-5/IC50 PANC-1): 1.53
- Selectivity index (PANC-1; IC50 PBMC/IC50 PANC-1): 1.20
- IC50 (SCC-25; Homo sapiens): 1440 nM
- Selectivity index (SCC-25; IC50 BJ/IC50 SCC-25): 1.28
- Selectivity index (SCC-25; IC50 MRC-5/IC50 SCC-25): 1.18
- Selectivity index (SCC-25; IC50 PBMC/IC50 SCC-25): 0.92
- IC50 (SCC-9; Homo sapiens): 1000 nM
- Selectivity index (SCC-9; IC50 BJ/IC50 SCC-9): 1.85
- Selectivity index (SCC-9; IC50 MRC-5/IC50 SCC-9): 1.70
- Selectivity index (SCC-9; IC50 PBMC/IC50 SCC-9): 1.33
- IC50 (SCC4; Homo sapiens, SCC-4): 1800 nM
- Selectivity index (SCC4; IC50 BJ/IC50 SCC4): 1.03
- Selectivity index (SCC4; IC50 MRC-5/IC50 SCC4): 0.94
- Selectivity index (SCC4; IC50 PBMC/IC50 SCC4): 0.74
- IC50 (THP-1; Homo sapiens): 140 nM
- Selectivity index (THP-1; IC50 BJ/IC50 THP-1): 13.21
- Selectivity index (THP-1; IC50 MRC-5/IC50 THP-1): 12.14
- Selectivity index (THP-1; IC50 PBMC/IC50 THP-1): 9.50
- IC50 (U-87 MG; Homo sapiens): 520 nM
- Selectivity index (U-87 MG; IC50 BJ/IC50 U-87 MG): 3.56
- Selectivity index (U-87 MG; IC50 MRC-5/IC50 U-87 MG): 3.27
- Selectivity index (U-87 MG; IC50 PBMC/IC50 U-87 MG): 2.56

Compound: Cc1cc(=O)nc([S][Ru+])[nH]1.F[P-](F)(F)(F)(F)F.c1ccc(-c2ccccn2)nc1.c1ccc(P(c2ccccc2)c2ccccc2)cc1.c1ccc(P(c2ccccc2)c2ccccc2)cc1 [Complex 2, trans-[Ru(6m2TU)(PPh3)2(bipy)]PF6]
- IC50 (A-375): 2000 nM
- IC50 (A549; A549, 72 h): 10500 nM
- IC50 (CAL 27): 4310 nM
- IC50 (DU 145): 3740 nM
- IC50 (HCT116): 4520 nM
- IC50 (HSC-3): 5550 nM
- IC50 (HepG2): 3170 nM
- IC50 (Jurkat): 4940 nM
- IC50 (KG-1a): 3770 nM
- IC50 (MDA-MB-231): 2950 nM
- IC50 (NB4): 5250 nM
- IC50 (OVCAR-3): 1600 nM and 1620 nM
- IC50 (PANC-1): 4090 nM
- IC50 (SCC-25): 3630 nM
- IC50 (SCC-9): 2540 nM
- IC50 (SCC4): 3480 nM
- IC50 (THP-1): 6470 nM
- IC50 (U-87 MG): 3690 nM
- motility, transwell cell migration (HepG2 cells): reduced motility
